Columns and labels:
Assay type in all cases: in vivo
[1] = test system: Pigweed, Palmer (palmer amaranth, palmer pigweed, Amaranthus palmeri); assay: Test A1 preemergence, Pigweed, Palmer
In short: (§1)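 Both timings started from seed in a loam-sand blend. Preemergence pots got a directed soil application immediately; postemergence pots were sprayed when seedlings had one or two leaves and stood 2–10 cm. Each compound was prepared in a non-phytotoxic solvent plus surfactant.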

[2] = test system: Ryegrass, Italian (Italian ryegrass, Lolium multiflorum); assay: Test A1 preemergence, Ryegrass, Italian
In short: as §1

soybean (Glycine max) [3] = assay: Test A1 preemergence, soybean
In short: as §1

[4] = test system: blackgrass (Alopecurus myosuroides); assay: Test A1 postemergence, blackgrass; conditions: Postemergence, 0 to 100 scale (0 no effect, 100 complete control)
In short: (§2)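 Pre: seeds in loam/sand blend, directed soil spray. Post: potted plants, same soil, 2–10 cm, 1–2 leaf stage. Chemicals in non-phytotoxic solvent + surfactant for both.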

corn (Zea mays) = assay: Test A1 postemergence, corn; conditions: Postemergence
In short: as §1

[5] = test system: Foxtail, Giant (giant foxtail, Setaria faberi); assay: Test A1 postemergence, Foxtail, Giant; conditions: Postemergence
In short: as §2

kochia (Bassia scoparia) = assay: Test A1 postemergence, kochia; conditions: Postemergence
In short: as §2

[6] = test system: Ryegrass, Italian (Italian ryegrass, Lolium multiflorum); assay: Test A1 postemergence, Ryegrass, Italian; conditions: Postemergence
In short: as §2

soybean (Glycine max) [7] = assay: Test A1 postemergence, soybean; conditions: Postemergence
In short: as §2

[8] = test system: galium (catchweed bedstraw, Galium aparine); assay: Test A1 postemergence, galium; conditions: Postemergence
In short: as §2

[9] = 31 g ai/ha, 0 to 100 scale (0 no effect, 100 complete control)
[10] = 125 g ai/ha, 0 to 100 scale, 0 no effect, 100 complete control
[11] = 31 g ai/ha, 0 to 100 scale (0 no effect, 100 complete control), 10 days

Row | Compound | Plant response rating, Pigweed, Palmer [1, 9] | Plant response rating, Pigweed, Palmer [1, 10] | Plant response rating, Ryegrass, Italian [2, 9] | Plant response rating, Ryegrass, Italian [2, 10] | Plant response rating, Soybean (soybean (Glycine max) [3]; [9]) | Plant response rating, Soybean (soybean (Glycine max) [3]; [10]) | Plant response rating, Blackgrass ([4]; 31 g ai/ha, 10 days) | Plant response rating, Blackgrass ([4]; 125 g ai/ha) | Plant response rating, Corn (corn (Zea mays); [11]) | Plant response rating, Corn (corn (Zea mays); 125 g ai/ha, 0 to 100 scale) | Plant response rating, Foxtail, Giant [5, 11] | Plant response rating, Foxtail, Giant ([5]; 125 g ai/ha, 0 to 100 scale) | Plant response rating, Kochia (kochia (Bassia scoparia); [11]) | Plant response rating, Kochia (kochia (Bassia scoparia); 125 g ai/ha, 0 to 100 scale) | Plant response rating, Ryegrass, Italian [6, 11] | Plant response rating, Ryegrass, Italian ([6]; 125 g ai/ha, 0 to 100 scale) | Plant response rating, Soybean (soybean (Glycine max) [7]; [11]) | Plant response rating, Soybean (soybean (Glycine max) [7]; 125 g ai/ha, 0 to 100 scale) | Plant response rating, Galium [8, 11] | Plant response rating, Galium ([8]; 125 g ai/ha, 0 to 100 scale)
1 | Cc1cc(C)c(N(COC(=O)C(C)(C)C)S(=O)(=O)C(F)(F)F)cc1C1=NOC2CCCCCC12 (single isomer, unassigned) [Compound 294] | 10 | 30 | 40 | 90 | 0 | 0 | 0 | 0 | 10 | 20 | 0 | 20 | 0 | 20 | 0 | 40 | 0 | 50 | 60 | 70
2 | Cc1cc(C)c(-n2nccc(C)c2=O)cc1NS(=O)(=O)C(F)(F)F [Compound 281] | 0 | 40 | 0 | 40 | 0 | 80 | 0 | 0 | 0 | 0 | 0 | 30 | 0 | 10 | 0 | 0 | 50 | 60 | 0 | 0
3 | COc1cnn(-c2cc(NS(=O)(=O)C(F)(F)F)c(C)cc2C)c(=O)c1OC [Compound 282] | 0 | 80 | 0 | 40 | 20 | 20 | 0 | 20 | 0 | 80 | 0 | 20 | 10 | 30 | 30 | 60 | 40 | 60 |  | 0
4 | Cc1c(NS(=O)(=O)C(F)(F)F)cc(C(=O)N(C)C)c(C)c1Cl [Compound 287] | 0 | 90 | 70 | 90 | 0 | 30 | 0 | 0 | 0 | 0 | 0 | 0 | 0 | 10 | 0 | 60 | 30 | 50 | 0 | 0
5 | Cc1c(NS(=O)(=O)C(F)(F)F)cc(C(=O)N(C)C)c(C)c1C [Compound 288] | 50 | 70 | 0 | 0 | 30 | 40 | 0 | 0 | 0 | 10 | 0 | 70 | 0 | 10 | 0 | 0 | 30 | 40 | 0 | 0
6 | Cc1cc(F)c(NS(=O)(=O)C(F)(F)F)cc1C1=NOC2(CCCC2)C1 [Compound 303] | 20 | 20 | 50 | 100 | 0 | 0 |  |  | 0 | 40 | 30 | 80 | 0 | 60 | 0 | 60 | 30 | 50 | 60 | 90
7 | COc1cc(C)c(C2=NOC3(CCCC3)C2)cc1NS(=O)(=O)C(F)(F)F [Compound 304] | 0 | 20 | 40 | 50 | 0 | 0 |  |  | 0 | 20 | 0 | 50 | 0 | 20 | 0 | 0 | 20 | 50 | 0 | 0
8 | Cc1cc(Br)c(NS(=O)(=O)C(F)(F)F)cc1C1=NOC2(CCCC2)C1 [Compound 309] | 40 | 40 | 60 | 90 | 0 | 0 |  |  | 0 | 30 | 20 | 60 | 0 | 60 | 0 | 30 | 10 | 30 | 40 | 80

From patent US20230278972A1, “SUBSTITUTED HALOALKYL SULFONANILIDE HERBICIDES” (FMC Corporation, priority 2020, published 2023)
